Results on six compounds are retold here after PMC12676205, “New Se‐Compounds With Antileishmanial, Antitumor, and Carbonic Anhydrase Inhibitory Properties” (Archiv Der Pharmazie, 2025).

The subject of one data set is THP‐1 cells. Also noted: method as in PMID 37570815, PMID 36364304. To be noted: reference drugs; cited from earlier work.
Data set [1] relates to L. infantum promastigotes. Also noted: method as in PMID 37570815, PMID 36364304. To be noted: reference drugs; cited from earlier work.
Data set [2] concerns L. major promastigotes. Also noted: method as in PMID 37570815, PMID 36364304. To be noted: reference drugs; cited from earlier work.
For data set [3], the system named is NCI‐60 human cancer cell lines. Also noted: method as in PMID 20442306. To be noted: NCI-60 panel; read-out: mean GI50 in the same panel of cell lines; cited from earlier work.
The next data set concerns the target T1, hCA I (Homo sapiens, UniProt P00915).
T1 construct: made in house
The experiment in a line: hCA I inhibition, stopped-flow CO2 hydration assay. The data set is classed as biochemical. To be noted: stopped flow technique, mean from three assays.

The test system of data set [4] is Prostate subpanel. Briefly: NCI-60 one-dose screen, prostate subpanel. The note with it: 10 µM, 48 h. The data set is classed as cell-based, human. The protocol: (§1) To explore the potential antiproliferative properties of the newly synthesized derivatives, they were submitted to the National Cancer Institute's (NCI) Developmental Therapeutics Program (DTP) for screening at 10 μM in a panel of approximately 60 human cancer cell lines from different cancer types. The results are reported as the growth percentage (GP), which is the growth of the treated cells with each compound for 48 h compared to the untreated controls (Figure 2). […] The initial screening results are summarized in Figure 2, and the mean GP values of each subpanel are depicted in Figure 3. The full reports are compiled in the Supplementary Section.
(§2) All the reported selenoesters (1–6) were submitted to the DTP of NCI. First, they were screened at a single dose (10^−5 M) against a panel of 60 cancer cell lines derived from different tumor types following the methodology available (https://dtp.cancer.gov/discovery_development/nci-60/methodology.htm). As all the compounds satisfied the threshold inhibition criteria established, they were further assessed at five concentrations (0.01, 0.1, 1, 10, and 100 µM) against the same cell panel to obtain their corresponding dose–response curves and three antitumor parameters (GI50, TGI, and LC50) by regression. GraphPad Prism 7.0 Software was used to represent the corresponding graphs.

In data set [5] the test system is Ovarian subpanel. The experiment in a line: NCI-60 five-dose assay, ovarian subpanel. The data set is classed as cell-based. The note with it: Homo sapiens, 48 h, read-out: Mean GI50 Ovarian. Here is the method: (§3) All the compounds were selected for further testing since they fulfilled the set NCI one‐dose screening parameters for threshold inhibition. They were tested at five different concentrations (0.01, 0.1, 1, 10, and 100 μM) for 48 h against the same cell line panel and the dose–response curves along with three response parameters (50% growth inhibitory concentration [GI50], the 50% lethal concentration [LC50], and the total growth inhibition [TGI]) were calculated for every cancer cell line. The full reported data and corresponding graphs are compiled in Supporting Information S1. Average values of GI50, TGI, and LC50 values of all the reported selenoesters in all the subpanels are represented in Figure 4.
as §2

The target in another data set is T2, hCA II (Homo sapiens, UniProt P00918).
T2 construct: made in house
Briefly: hCA II inhibition, stopped-flow CO2 hydration assay. In kind it is biochemical. To be noted: stopped flow technique, mean from three assays.

The subject of data set [6] is L. major promastigotes. Briefly: Leishmanicidal activity against promastigotes (MTT), L. major. To be noted: Leishmania major, 48 h, mean ± SD, read-out: L. major IC50. The data set is classed as cell-based, Leishmania major. Here is the method:
(§4) The synthesized compounds were tested for their antileishmanial activity against promastigotes of L. major and L. infantum at four concentrations (1, 10, 50, and 100 µM) for 48 h using the 3‐(4,5‐dimethylthiazol‐2‐yl)‐2,5‐diphenyltetrazolium bromide (MTT) assay. In this evaluation, the activity was expressed in IC50 (concentration inhibiting the parasite growth by 50%). […] The CC50 was defined as the concentration of selenoesters that led to a reduction in the viability of the macrophages, such that only 50% of the cells survived when compared to the control group. This cell line, derived from the blood of a human with acute monocytic leukemia, was chosen as it has been widely reported that it resembles tissue macrophages to various extents as well as supports the infection by numerous Leishmania promastigotes. The selectivity indexes (SIs) were calculated as the ratio between toxicity on macrophages (THP‐1 cells)/antileishmanial activity. The data for standard control drugs (miltefosine and paromomycin) are included for comparison purposes.
(§5) The promastigotes of L. major (clone VI, MHOM/IL/80/Friendlin) and L. infantum (BCN‐150) were grown at 26°C under continuous shaking in M199 1× medium (Sigma, USA). This media was supplemented with 10% of heat‐inactivated fetal bovine serum (FBS) (Gibco, USA), 0.0005% (w/v) hemin, 0.1 mM adenine, 25 mM HEPES (pH 7.2), 0.0001% (w/v) biotin, and 100 UI/mL penicillin and […] streptomycin (Gibco, USA).
(§6) The antileishmanial activity of the reported selenoesters was determined using the MTT assay as previously described during the logarithmic growth phase of the tested promastigotes of L. major and L. infantum. Briefly, the Leishmania parasites were seeded into 96‐well flat‐bottom plates (3 × 10^5 parasites/100 µL) and treated with four different concentrations ranging between 1 and 100 µM of each selenoester at 26°C for 48 h. Afterwards, 20 µL of MTT (5 mg/mL in PBS) was added to each well and incubated for 4 h under the same conditions. Then, 80 µL/well of DMSO was added to dissolve the resultant formazan crystals. The absorbances were determined on a Multiskan EX photometric plate reader for microplates at 540 nm. Three independent experiments performed in triplicate were carried out for each compound, and OriginPro 8.5.1 Software was used to calculate the IC50 values by fitting the data to a dose–inhibition sigmoid curve.

In another data set the target is T3, hCA XII (Homo sapiens, UniProt O43570).
T3 construct: made in house
Briefly: hCA XII inhibition, stopped-flow CO2 hydration assay. The data set is classed as biochemical. The note with it: stopped flow technique, mean from three assays.

For data set [7], the system named is Leukemia subpanel. The experiment in a line: NCI-60 five-dose assay, leukemia subpanel. The data set is classed as cell-based. To be noted: Homo sapiens, 48 h. Here is the method:
as §3, §2

The next data set concerns OVCAR‐5. Briefly: NCI-60 one-dose screen, OVCAR-5. The data set is classed as cell-based, human. To be noted: 10 µM, 48 h. Here is the method: as §1, §2
The target in the next data set is T4, hCA IX (Homo sapiens, UniProt Q16790).
T4 construct: made in house
The experiment in a line: biochemical. The note with it: stopped flow technique, mean from three assays.

Data set [8] relates to CNS subpanel. Briefly: NCI-60 one-dose screen, CNS subpanel. To be noted: 10 µM, 48 h. In kind it is cell-based, human. Here is the method:
as §1, §2

Data set [9] concerns Colon subpanel. Briefly: NCI-60 one-dose screen, colon subpanel. In kind it is cell-based, human. To be noted: 10 µM, 48 h. Here is the method: as §1, §2
For data set [10], the system named is NSCL (non‐small‐cell lung cancer) subpanel. Briefly: NCI-60 one-dose screen, NSCL subpanel. The data set is classed as cell-based, human. To be noted: 10 µM, 48 h. Here is the method: as §1, §2
Data set [11] relates to Renal subpanel. The experiment in a line: NCI-60 five-dose assay, renal subpanel. To be noted: Homo sapiens, 48 h, read-out: Mean GI50 Renal. In kind it is cell-based. Here is the method:
as §3, §2

Data set [12] has as its system CNS subpanel. Briefly: NCI-60 five-dose assay, CNS subpanel. In kind it is cell-based. The note with it: Homo sapiens, 48 h, read-out: Mean GI50 CNS. The protocol:
as §3, §2

Data set [13] concerns NSCL (non‐small‐cell lung cancer) subpanel. Briefly: NCI-60 five-dose assay, NSCL subpanel. The data set is classed as cell-based. To be noted: Homo sapiens, 48 h, read-out: Mean GI50 NSCL. The protocol: as §3, §2
For data set [14], the system named is Renal subpanel. The experiment in a line: NCI-60 one-dose screen, renal subpanel. In kind it is cell-based, human. To be noted: 10 µM, 48 h. Here is the method: as §1, §2
Data set [15] has as its system Melanoma subpanel. Briefly: NCI-60 one-dose screen, melanoma subpanel. The data set is classed as cell-based, human. The note with it: 10 µM, 48 h. Here is the method: as §1, §2
Data set [16] concerns OVCAR‐5 ovarian cancer cells. Briefly: NCI-60 five-dose assay, OVCAR-5. The note with it: 48 h. In kind it is cell-based, human. The protocol: as §3, §2
The subject of data set [17] is Colon subpanel. Briefly: NCI-60 five-dose assay, colon subpanel. To be noted: Homo sapiens, 48 h. In kind it is cell-based. The protocol: as §3, §2
Data set [18] concerns Melanoma subpanel. Briefly: NCI-60 five-dose assay, melanoma subpanel. To be noted: Homo sapiens, 48 h, read-out: Mean GI50 Melanoma. In kind it is cell-based. The protocol:
as §3, §2

Data set [19] relates to Breast subpanel. The experiment in a line: NCI-60 one-dose screen, breast subpanel. In kind it is cell-based, human. To be noted: 10 µM, 48 h. Here is the method: as §1, §2
Data set [20] deals with Ovarian subpanel. Briefly: NCI-60 one-dose screen, ovarian subpanel. The data set is classed as cell-based, human. To be noted: 10 µM, 48 h. Here is the method: as §1, §2
Data set [21] concerns Prostate subpanel. Briefly: NCI-60 five-dose assay, prostate subpanel. In kind it is cell-based, human. The note with it: Homo sapiens, 48 h. The protocol:
as §3, §2

Data set [22] concerns Breast subpanel. The experiment in a line: NCI-60 five-dose assay, breast subpanel. In kind it is cell-based. To be noted: Homo sapiens, 48 h, read-out: Mean GI50 Breast. Here is the method: as §3, §2
Data set [23] deals with Leukemia subpanel. The experiment in a line: NCI-60 one-dose screen, leukemia subpanel. To be noted: 10 µM, 48 h. In kind it is cell-based, human. Here is the method: as §1, §2
For data set [24], the system named is L. infantum promastigotes. The experiment in a line: Leishmanicidal activity against promastigotes (MTT), L. infantum. In kind it is cell-based, Leishmania infantum. The note with it: Leishmania infantum, 48 h, mean ± SD, read-out: L. infantum IC50. The protocol:
as §4, §5, §6

Like-named read-outs stand apart in the source and are kept apart here.

T1 sequence (P00915 whole entry): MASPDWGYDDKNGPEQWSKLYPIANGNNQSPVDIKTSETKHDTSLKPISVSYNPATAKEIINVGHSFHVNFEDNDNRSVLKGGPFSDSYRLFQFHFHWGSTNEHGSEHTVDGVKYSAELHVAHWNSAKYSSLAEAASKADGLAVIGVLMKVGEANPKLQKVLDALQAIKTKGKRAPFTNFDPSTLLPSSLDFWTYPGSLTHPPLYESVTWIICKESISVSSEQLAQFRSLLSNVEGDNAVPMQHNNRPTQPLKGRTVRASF
T3 sequence (O43570 25-354): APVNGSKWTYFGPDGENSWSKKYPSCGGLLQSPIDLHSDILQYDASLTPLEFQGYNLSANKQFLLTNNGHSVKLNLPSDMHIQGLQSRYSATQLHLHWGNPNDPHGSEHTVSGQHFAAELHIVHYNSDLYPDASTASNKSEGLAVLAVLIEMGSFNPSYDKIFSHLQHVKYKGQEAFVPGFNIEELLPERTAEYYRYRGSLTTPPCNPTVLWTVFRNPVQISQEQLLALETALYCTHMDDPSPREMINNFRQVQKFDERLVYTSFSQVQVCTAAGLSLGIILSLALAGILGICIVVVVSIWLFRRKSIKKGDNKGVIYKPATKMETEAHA
Protocol for hCA II: (§7) An Applied Photophysics stopped‐flow instrument was used to assay the CA‐catalyzed CO2 hydration activity [52]. […] The uncatalyzed rates were determined in the same manner and subtracted from the total observed rates. Stock solutions of the inhibitor (0.1 mM) were prepared in distilled–deionized water, and dilutions up to 0.01 nM were done thereafter with the assay buffer. Inhibitor and enzyme solutions were preincubated together for 15 min at room temperature before the assay, to allow for the formation of the E–I complex. The inhibition constants were obtained by Nonlinear least‐squares methods using PRISM 3 and the Cheng‐Prusoff equation as reported earlier and represent the mean from at least three different determinations. All CA isoforms were recombinant proteins obtained in‐house, as reported earlier [54, 55, 56].
Protocol for hCA IX: as §7
Protocol for hCA XII: as §7

As to `NC[C@@H]1O[C@H](O[C@H]2[C@@H](O)[C@H](O[C@@H]3[C@@H](O)[C@H](N)C[C@H](N)[C@H]3O[C@H]3O[C@H](CO)[C@@H](O)[C@H](O)[C@H]3N)O[C@@H]2CO)[C@H](N)[C@@H](O)[C@@H]1O` [Paromomycin, paromomycin], in the data set on THP‐1 cells, the CC50 is 39 ± 13.7 µM. For the same compound, the half-maximal inhibitory concentration (IC50) – broadly, the concentration needed to halve the response being measured – in [1] is 18 ± 1 µM; with L. major promastigotes [2], 71 ± 3.3 µM.
Take `O=C1[O][Pt]2([NH][C@@H]3CCCC[C@H]3[NH]2)[O]C1=O` [oxaliplatin]: in data set [3], the GI50 – broadly, the concentration at which growth is held to half of that of the control – was 2.8 µM.
For `N#Cc1ccc(NC(=O)C[Se]C(=O)c2ccco2)cc1C(F)(F)F` [Compound 4, Se‐(2‐((4‐cyano‐3‐(trifluoromethyl)phenyl)amino)‐2‐oxoethyl)furan‐2‐carboselenoate], the inhibition constant (Ki) – broadly, a dissociation constant, usually derived from enzyme kinetics or from competition with a known ligand – on hCA I was over 100 µM; at hCA II, 93.8 µM; at hCA XII, 77.1 µM; at hCA IX, 19 µM. Besides, in the data set on Prostate subpanel [4], the “average growth cell value, Prostate” value is on record as -28.10%. Also, the GI50 in the data set with Ovarian subpanel [5] came to 1940 nM; with Leukemia subpanel [7] (read-out: Mean GI50 Leukemia) it was 1870 nM; in the data set with Renal subpanel [11] it was 1920 nM; with CNS subpanel [12] it was 1800 nM; in [13], 1560 nM; with Colon subpanel [17] (read-out: Mean GI50 Colon), 1910 nM. For the same compound, the GI50 turned out to be 1440 nM with Melanoma subpanel [18], 1650 nM in the data set on Prostate subpanel [21] (read-out: Mean GI50 Prostate) and 1720 nM with Breast subpanel [22]. The IC50 is 26.5 ± 3.69 µM in the data set on L. major promastigotes [6] and 28.6 ± 2.4 µM in data set [24]. Further, the CC50 in the data set on Leukemia subpanel [7] (read-out: Mean LC50 Leukemia) was over 100 µM; with Colon subpanel [17] (read-out: Mean LC50 Colon), 27.6 µM; in the data set on Prostate subpanel [21] (read-out: Mean LC50 Prostate), 53.2 µM. In addition, in the data set with OVCAR‐5, the “behaviour in OVCAR‐5” value was “cytotoxic activity”. In the data set with CNS subpanel [8], the “average growth cell value, CNS” value is -60.59%. Besides, the “average growth cell value, Colon” value with Colon subpanel [9] is -19.82%. Further, the “average growth cell value, NSCL” value in data set [10] is given as -37.92%. For the same compound, in the data set on Renal subpanel [14], the “average growth cell value, Renal” value was -40.11%. In addition, in the data set with Melanoma subpanel [15], the “average growth cell value, Melanoma” value was -56.62%. Also, the “cytotoxicity against OVCAR‐5” value in [16] is “remarkable cytotoxicity”. Also, the “average growth cell value, Breast” value in the data set on Breast subpanel [19] is recorded as -25.05%. The “average growth cell value, Ovarian” value with Ovarian subpanel [20] is recorded as -28.29%. Besides, the “average growth cell value, Leukemia” value with Leukemia subpanel [23] is 5.71%.
For the compound `CCCCCCCCCCCCCCCCOP(=O)([O-])OCC[N+](C)(C)C` [Miltefosine, miltefosine], the CC50 with THP‐1 cells was 13.3 ± 2.8 µM. Moreover, the values for the IC50 (in data set [1]; in the data set on L. major promastigotes [2]) were 31.9 ± 2.3 µM and 66.6 ± 11.6 µM, respectively.
In the case of `O=c1[nH]cc(F)c(=O)[nH]1` [5‐fluorouracil], the GI50 in data set [3] was 18 µM.
With `COc1cc2ncnc(Nc3ccc(F)c(Cl)c3)c2cc1OCCCN1CCOCC1` [gefitinib], the concentration for 50% growth inhibition (GI50) in data set [3] was 3.2 µM.
